The results in this text go back to patent US6342502B1, “Thieno[2,3-d]pyrimidine diones and their use in the treatment of reversible obstructive airways diseases” (AstraZeneca AB, priority 1997, dated 2002).

By melting point is commonly meant the temperature, or range, at which the solid turns liquid. `CC(C)Cn1c(=O)n(C)c(=O)c2c(Sc3cccc(N)c3)c(Cc3cccc4ccccc34)sc21` [Example 31, 5-[(3-Aminophenyl)thio]-3-methyl-1-(2-methylpropyl)-6-(1-naphthalenylmethyl)-thieno[2,3-d]pyrimidine-2,4-(1H, 3H)-dione] displayed a melting point of 149 to 150 °C.

In turn, `CC(C)Cn1c(=O)n(C)c(=O)c2cc(C(O)c3ccc([N+](=O)[O-])cc3)sc21` (stereo not drawn) [Example 90, 6-[1-Hydroxy-(4-nitrophenyl)methyl]-3-methyl-1-(2-methylpropyl)thieno[2,3-d]pyrimidin-2,4(1H,3H)-dione] registered a melting point of 127 °C.

For `CC(C)Cn1c(=O)n(C)c(=O)c2c(Sc3ccc([N+](=O)[O-])cn3)c(Cc3cccc4ccccc34)sc21` [Example 37, 3-Methyl-1-(2-methylpropyl)-6-(1-naphthalenylmethyl)-5-[(5-nitropyridin-2-yl)thio]thieno[2,3-d]pyrimidine-2,4-(1H, 3H)-dione], the melting point lay within 200 to 201 °C.

With `CC(C)Cn1c(=O)n(C)c(=O)c2c(S(=O)(=O)c3cccc(O)c3)c(Cc3cccc4ccccc34)sc21` [Example 29], the melting point lay in the range of 209 to 210 °C.

On to `CC(C)Cn1c(=O)n(C)c(=O)c2c(Sc3ccc(N)cc3)c(Cc3cccc4ccccc34)sc21` [Example 36, 5-[(4-Aminophenyl)thio]-3-methyl-1-(2-methylpropyl)-6-(1-naphthalenylmethyl)thieno[2,3-d]pyrimidine-2,4-(1H, 3H)-dione], for which the melting point fell in the range of 177 to 178 °C.

`CC(C)Cn1c(=O)n(C)c(=O)c2c(C(=O)NCC(=O)O)c(Cc3cccc4ccccc34)sc21` [Example 21, 2-{[1,2,3,4-Tetrahydro-3-methyl-1-(2-methylpropyl)-6-(1-naphthalenylmethyl)-2,4-dioxothieno[2,3-d]pyrimidin-5-yl]carboxamido}acetic acid] yielded a melting point of 218 to 219 °C.
